Results on 19 compounds are retold here after patent US7432089B2, “DNA encoding favin-adenine-dinucleotide-dependent-D-erythronate-4-phosphate-de-hydrogenase, pdxR, and microbial production of vitamin B6” (DSM IP Assets B.V., priority 2002, dated 2008).

For one experiment, the system named is CFE of S. meliloti 16C18. As to the kind of experiment: EN4P dehydrogenase activity with an electron acceptor in cell-free extract (color change). It counts as biochemical. The note with it: 21° C. The procedure: (§1) The frozen cells were thawed slowly, suspended with 200 ml of 10 mM Tris-HCl buffer, pH 7.5. The suspension was passed through a French pressure cell at 800 kg/cm^2. The homogenate was centrifuged to remove the cell debris at 37,000×g for 90 minutes and then each 165 ml of supernatants was used as cell-free extract (CFE) and the protein contents in S. meliloti 16C18 and S. meliloti 16C18/pVK-pdxR were 5,030 and 5,042 mg, respectively.
(§2) EN4P dehydrogenase activity with NAD^+ or NADP^+ in CFE was determined by the formation of NADH or NADPH, which absorbs at 340 nm. Reaction mixture (150 μl) for assaying EN4P dehydrogenase activity contained 33 mM potassium phosphate buffer, pH 7.0, 2.3 mM EN4P, 1 mM NAD^+ or NADP^+, and CFE prepared from cells of S. meliloti 16C18 or S. meliloti 16C18/pVK-pdxR (each 0.16 mg protein). The increase of A340 was monitored at room temperature (21° C.) for 1 min in a UV-VIS recording spectrophotometer UV 2200 (Shimadzu Instruments, Inc., Kyoto, Japan), but the increase of A340 was not observed in enzyme reaction mixtures with any CFEs. Therefore, the both CFEs were determined to have no NAD^+ or NADP^+ dependent EN4P dehydrogenase activity. EN4P dehydrogenase activity with an electron acceptor in CFE was examined at room temperature (21° C.) by color change due to formation of reduced form from oxidized form of an electron acceptor. Reaction mixture (150 μl) contained 33 mM potassium phosphate buffer, pH 7.0, 2.3 mM EN4P, CFE (0.16 mg protein), and an electron acceptor such as 2,6-dichlorophenolindophenol (0.091 mM) (Wako Pure chemical Industries, Ltd., Osaka, Japan) (referred to as DCIP hereinafter) or ferricyanide (1.3 mM) (Wako Pure chemical Industries, Ltd., Osaka, Japan). […]

Experiment [1] concerns pdxR gene product in CFE of S. meliloti 16C18/pVK-pdxR. The description is as above. The class given is biochemical. Particulars: 21° C. As for the experimental part:
as §1, §2

The next experiment relates to PdxR. As to the kind of experiment: Substrate specificity of PdxR (DCIP reduction, A600). It counts as biochemical, S. meliloti. The procedure: Substrate specificity of PdxR was examined using the finally purified enzyme solution prepared in Example 2[C] (1). The standard enzyme assay was performed as follows: the basal reaction mixture (total volume 150 μl) consisting of 33 mM potassium phosphate buffer (pH 7.0), 2.4 μg proteins, 0.091 mM DCIP, and water up to a total volume of 144 μl, and was incubated for 1 minute at room temperature (21° C.). […]. The decrease in A600 was monitored at 21° C. for 1 minute for EN4P dehydrogenase read with a UV-VIS recording spectrophotometer UV 2200. One unit of the enzyme activity was defined as the amount of enzyme reduced 1 nmol of DCIP for 1 minute under the action of EN4P dehydrogenase in the assay system described above.

A further experiment relates to S. meliloti 16C18. As to the kind of experiment: Growth of vitamin B6-deficient mutant on supplemented EMM plate. The class given is cell-based, Sinorhizobium meliloti. As for the experimental part:
These colonies were streaked on LBMC plates containing same antibiotics and incubated for 2 days at 30° C. The cells grown on the plates were inoculated on vitamin B6 assay plates (Table 1) containing Saccharomyces carlsbergensis ATCC 9080 as a vitamin B6 indicator strain. After incubation for 2 days at 30° C., one colony that had no halo of Saccharomyces carlsbergensis ATCC 9080 was obtained. The strain was named as S. meliloti 16C18. […] Further, S. meliloti 16C18 grew on EMM plate which was supplemented with 4 mg/L of 4-HT or 400 μg/L of PN.

Experiment [2] deals with EN4P dehydrogenase in CFE of S. meliloti 16C18 or S. meliloti 16C18/pVK-pdxR. As to the kind of experiment: EN4P dehydrogenase activity with NAD+ or NADP+ in CFE (increase of A340). The class given is biochemical. Particulars: 1 mM coenzyme, 2.3 mM EN4P, any CFE, 21° C., 1 min. As for the experimental part:
as §2

The test system of a further experiment is EN4P dehydrogenase. Kind of experiment: Cytochrome c as electron acceptor of EN4P dehydrogenase (absorption spectra 400-600 nm). It counts as biochemical, S. meliloti. Particulars: 80 μM oxidized cytochrome c, 2.3 mM EN4P, CFE, 21° C., 2-20 min. The procedure: Furthermore, possibility of cytochrome c instead of DCIP or ferricyanide in above-mentioned enzyme reaction system of EN4P dehydrogenase with an electron acceptor was examined by measuring change of absorption spectra in 400-600 nm spectral regions due to formation of reduced form from oxidized form of cytochrome c at room temperature (21° C.). Reaction mixture (150 μl) contained 33 mM potassium phosphate buffer, pH 7.0, 2.3 mM EN4P, 80 μM oxidized form of cytochrome c (from equine heart, Sigma Chemical Co.) as an electron acceptor, and CPE (0.16 mg protein). Absorption spectra of the reaction mixture of zero time and after 2, 5, 10, 15 and 20 min at room temperature (21° C.) were monitored with a UV-VIS recording spectrophotometer UV 2200. The absorption spectrum of zero time had only a broad peak at 525 nm, but spectra after 2 min appeared a new peak at 550 nm corresponding to reduced form of cytochrome c, and the absorption in the 550 nm region after 5, 10, 15 and 20 min was increased with time course.
Chain of EN4P dehydrogenase (as listed by the source): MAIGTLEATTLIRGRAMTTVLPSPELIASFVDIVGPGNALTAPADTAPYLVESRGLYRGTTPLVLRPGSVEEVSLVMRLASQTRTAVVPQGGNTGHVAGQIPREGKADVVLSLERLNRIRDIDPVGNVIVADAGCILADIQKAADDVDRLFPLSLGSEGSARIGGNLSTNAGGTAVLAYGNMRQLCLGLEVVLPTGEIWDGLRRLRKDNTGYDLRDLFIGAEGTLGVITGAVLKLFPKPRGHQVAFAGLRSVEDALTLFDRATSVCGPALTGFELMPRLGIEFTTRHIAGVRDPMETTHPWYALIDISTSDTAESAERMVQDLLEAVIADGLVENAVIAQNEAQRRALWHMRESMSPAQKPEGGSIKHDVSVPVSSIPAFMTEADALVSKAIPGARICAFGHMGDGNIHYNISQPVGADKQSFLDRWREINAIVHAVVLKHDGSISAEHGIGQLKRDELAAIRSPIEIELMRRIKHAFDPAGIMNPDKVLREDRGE

Experiment [3] has as its system purified PdxR treated with ammonium sulfate. Kind of experiment: Effect of flavin on discoloration of DCIP in reaction mixture. It counts as biochemical, S. meliloti. The procedure: To characterize a flavin binding to PdxR protein, ammonium sulfate fractionation was applied in the finally purified enzyme solution prepared in Example 2[C] (1) according to a method of Cammack [Biochem. J. 109:45-46 (1968)]. The enzyme solution (1 ml, containing 4.74 mg proteins) was dialyzed overnight against 1 liter of 80% (w/v) ammonium sulfate solution and its resultant precipitate in a dialysis membrane was collected by centrifugation at 34,800×g for 30 min, dissolved in 0.5 ml of 10 mM Tris-HCl, pH 7.5, and dialyzed overnight against 4 liters of the same buffer. The volume of dialyzed enzyme solution was brought to 1 ml with 10 mM Tris-HCl, pH 7.5.
The degree of discoloration was judged at 3 minutes.

Setting [4] is: substrate 2.28 mM, 0.091 mM DCIP, pH 7.0, 21° C.

As for `O=C1C=CC(=Nc2cc(Cl)c(O)c(Cl)c2)C=C1` [DCIP, 2,6-dichlorophenolindophenol], the “Color change of electron acceptor in reaction mixture” value with CFE of S. meliloti 16C18 (CFE of S. meliloti 16C18, + EN4P (2.3 mM)) was “No change”; with CFE of S. meliloti 16C18 (CFE of S. meliloti 16C18, − EN4P), “No change”; in experiment [1] it was “No change”.

As to `O=C(O)[C@H](O)[C@H](O)CO` [D-erythronate], the “Activity (nmol/min/mg protein)” value with PdxR (pH 7) is reported as 0 nmol/min/mg protein.

For the compound `Cc1ncc(CO)c(CO)c1O` [PN, pyridoxol], the “Growth of S. meliloti 16C18 on supplemented EMM plate” value with S. meliloti 16C18 (EMM plate supplemented with 400 μg/L of PN) was “grew”.

As for `NC(=O)c1ccc[n+]([C@@H]2O[C@H](COP(=O)([O-])OP(=O)(O)OC[C@H]3O[C@@H](n4cnc5c(N)ncnc54)[C@H](OP(=O)(O)O)[C@@H]3O)[C@@H](O)[C@H]2O)c1` [NADP^+], the “Increase of A340 (formation of NADH or NADPH)” value in experiment [2] is on record as “not observed”.

As for `O=C(O)CO` [glycolate], the “Activity (nmol/min/mg protein)” value in the experiment on PdxR (setting [4]) was found to be 0 nmol/min/mg protein.

For `O=CC(=O)O` [glyoxylate], the “Activity (nmol/min/mg protein)” value with PdxR (setting [4]) is listed as 0 nmol/min/mg protein.

With `N[C@H](C(=O)O)[C@H](O)CO` [4-HT, 4-hydroxy-L-threonine], the “Growth of S. meliloti 16C18 on supplemented EMM plate” value with S. meliloti 16C18 (EMM plate supplemented with 4 mg/L of 4-HT) is recorded as “grew”.

As to `O=C(O)C[C@H](O)C(=O)O` [L-malic acid], the “Activity (nmol/min/mg protein)” value in the experiment on PdxR (setting [4]) is recorded as 0 nmol/min/mg protein.

For the compound `C[C@H](O)C(=O)O` [L-(+)-lactic acid], in the experiment on PdxR (setting [4]), the “Activity (nmol/min/mg protein)” value was 0 nmol/min/mg protein.

Regarding `O=C(O)COP(=O)(O)O` [glycolic acid 2-phosphate], in the experiment with PdxR (setting [4]), the “Activity (nmol/min/mg protein)” value is given as 0 nmol/min/mg protein.

In the case of `O=C(O)[C@H](O)[C@H](O)COP(=O)(O)O` [EN4P, D-erythronate 4-phosphate], in the experiment with PdxR (substrate 2.28 mM, 0.091 mM DCIP), the “Oxidation by PdxR” value was “oxidized”. Further, in the experiment on PdxR (setting [4]), the “Activity (nmol/min/mg protein)” value is recorded as 946 nmol/min/mg protein.

With cytochrome c, the “Function as electron acceptor (reduced form peak at 550 nm)” value with EN4P dehydrogenase is on record as “works as electron acceptor”.

With `O=C(O)[C@H](O)COP(=O)(O)O` [D-(−)-glyceric acid 3-phosphate], the “Activity (nmol/min/mg protein)” value in the experiment with PdxR (setting [4]) is recorded as 0 nmol/min/mg protein.

Consider `NC(=O)c1ccc[n+]([C@@H]2O[C@H](COP(=O)([O-])OP(=O)(O)OC[C@H]3O[C@@H](n4cnc5c(N)ncnc54)[C@H](O)[C@@H]3O)[C@@H](O)[C@H]2O)c1` [NAD^+], for which the “Increase of A340 (formation of NADH or NADPH)” value in experiment [2] was “not observed”.

For `CC(O)C(=O)O` (racemic) [D,L-lactate], in the experiment on PdxR (pH 7), the “Activity (nmol/min/mg protein)” value was determined as 0 nmol/min/mg protein.

On to `O=C(O)CC(C(=O)O)C(O)C(=O)O` [D,L-isocitrate], for which the “Activity (nmol/min/mg protein)” value with PdxR (setting [4]) worked out at 0 nmol/min/mg protein.

For the compound `O=C(O)[C@H](O)CO` [D(+) glyceric acid], the “Activity (nmol/min/mg protein)” value in the experiment on PdxR (setting [4]) is 0 nmol/min/mg protein.

Take `Cc1cc2nc3c(=O)[nH]c(=O)nc-3n(C[C@H](O)[C@H](O)[C@H](O)COP(=O)(O)O)c2cc1C` [FMN, flavin mononucleotide]: in experiment [3] (any FMN concentrations), the “Discoloration of DCIP” value was “did not occur”.

As to `Cc1cc2nc3c(=O)[nH]c(=O)nc-3n(C[C@H](O)[C@H](O)[C@H](O)COP(=O)(O)OP(=O)(O)OC[C@H]3O[C@@H](n4cnc5c(N)ncnc54)[C@H](O)[C@@H]3O)c2cc1C` [FAD, flavin adenine dinucleotide], the “Flavin concentration at which discoloration of DCIP occurred” value in experiment [3] (judged at 3 minutes, 21° C.) is “greater than 0.014 μM”.
